These results are taken from patent publication US12071425B2 (Genentech, Inc., priority 2018, dated 2024).

The structures appear in SMILES notation. Structures can show the parent of a compound that is named as a salt.

In the experiment the target is kinase domain of IRE1 alpha (His-tagged kinase dead construct KR, AA G547-L977, D688N) (Homo sapiens (Human), UniProt O75460, D688N). Description: IRE1α TR-FRET competition binding assay. The conditions noted are these: competition with Kinase Tracer 236, 0.1 μM; one hour at room temperature. As to the method: To determine the affinity of compound binding to the kinase domain of IRE1 alpha, a Time Resolved Fluorescence Resonance Energy Transfer (TR-FRET) competition assay was used. A His-tagged IRE1 alpha kinase dead construct containing the kinase and RNase domains (KR, AA G547-L977, D688N) was expressed in Sf9 insect cells. The purified protein (final concentration 0.006 μM micromolar) was pre-incubated with anti-His Europium labeled antibody (Life Technologies PV5596, final concentration 0.002 μM micromolar) for one hour at 4° C. in 1X TR-FRET Assay Buffer (50 mM HEPES, pH 7.5.10 mM MgCl2, 0.083 mM Brij 35, 1 mM DTT, and 0.1% bovine gamma globulin) prior to addition to test compounds. A fluorescent labeled probe based on an ATP competitive inhibitor (Kinase Tracer 236, Life Technologies PV5592) is added to a final concentration of 0.1 μM (micromolar). Reactions were carried out for one hour at room temperature in a final volume of 20 μL (microliter) in 384 well white ProxiPlates (Perkin Elmer 6008289). Binding of the tracer to the IRE1 protein alpha was detected in an Envision instrument (PerkinElmer) equipped with a TRF laser option and a LANCE/Delfia Dual/Bias D400/D630 mirror (Ex 347 nm, 1st Em 665 nm, 2nd Em 615 nm).
Exemplary compounds in Table A1 were tested in the IRE1α binding assays.
A general note: TR-FRET usually uses a lanthanide donor and a delayed reading to cut background.

Sequence of kinase domain of IRE1 alpha (His-tagged kinase dead construct KR, AA G547-L977, D688N) (O75460 547-977 D688N): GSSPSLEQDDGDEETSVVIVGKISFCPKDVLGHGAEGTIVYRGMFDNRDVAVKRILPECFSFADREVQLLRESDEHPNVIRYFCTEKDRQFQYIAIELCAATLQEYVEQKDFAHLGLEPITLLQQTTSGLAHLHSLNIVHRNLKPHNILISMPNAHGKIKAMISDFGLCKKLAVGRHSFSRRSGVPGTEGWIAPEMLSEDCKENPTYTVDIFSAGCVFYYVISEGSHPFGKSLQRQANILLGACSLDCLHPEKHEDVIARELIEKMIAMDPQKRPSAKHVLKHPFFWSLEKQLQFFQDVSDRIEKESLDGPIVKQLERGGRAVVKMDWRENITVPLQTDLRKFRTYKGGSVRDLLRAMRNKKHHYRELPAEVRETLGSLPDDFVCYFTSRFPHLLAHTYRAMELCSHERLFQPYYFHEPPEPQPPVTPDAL

As a reminder, the IC50 is the concentration that gives 50% inhibition. High values mean weaker potency in that assay, low ones greater potency in that assay. Regarding `CN(C)C1CCC(Nc2nccc(-c3cccnc3Oc3cc(F)c(NS(=O)(=O)Cc4ccccc4)c(F)c3F)n2)CC1F` (single isomer, unassigned) [Compound 307, N-(4-((3-(2-((4-(Dimethylamino)-3-fluorocyclohexyl)amino)pyrimidin-4-yl)pyridin-2-yl)oxy)-2,3,6-trifluorophenyl)-1-phenylmethanesulfonamide hydrochloride], the IC50 was 310 pM.
Turning to `CN(C)C1CCC(Nc2nccc(-c3cccnc3Oc3cc(F)c(NS(=O)(=O)Cc4ccccc4)c(F)c3F)n2)CC1F` (single isomer, unassigned) [Compound 308, N-(4-((3-(2-((4-(Dimethylamino)-3-fluorocyclohexyl)amino)pyrimidin-4-yl)pyridin-2-yl)oxy)-2,3,6-trifluorophenyl)-1-phenylmethanesulfonamide], the IC50 came to 83000 pM.
The compound `Cc1cc(NS(=O)(=O)C(C)c2ccccc2)c(F)c(F)c1Oc1ncccc1-c1ccnc(N[C@@H]2CNC[C@@H](F)C2)n1` (single isomer, unassigned) [Compound 313, hydrochloride] displayed an IC50 of 1200 pM.
The compound `Cc1cc(NS(=O)(=O)C(C)c2ccccc2)c(F)c(F)c1Oc1ncccc1-c1ccnc(N[C@@H]2CNC[C@@H](F)C2)n1` (single isomer, unassigned) [Compound 314] showed an IC50 of 240 pM.
Turning to `COC1CNCC(Nc2nccc(-c3cccnc3Oc3cc(F)c(NS(=O)(=O)Cc4ccccc4)c(F)c3F)n2)C1` (single isomer, unassigned) [Compound 317, 1-Phenyl-N-(2,3,6-trifluoro-4-((3-(2-((5-methoxypiperidin-3-yl)amino)pyrimidin-4-yl)pyridin-2-yl)oxy)phenyl)methanesulfonamide], the IC50 amounted to 140000 pM.
As for `COC1CNCC(Nc2nccc(-c3cccnc3Oc3cc(F)c(NS(=O)(=O)Cc4ccccc4)c(F)c3F)n2)C1` (single isomer, unassigned) [Compound 318, 1-Phenyl-N-(2,3,6-trifluoro-4-((3-(2-((5-methoxypiperidin-3-yl)amino)pyrimidin-4-yl)pyridin-2-yl)oxy)phenyl)methanesulfonamide], the IC50 amounted to 300 pM.
For the compound `COC1CNCC(Nc2nccc(-c3cccnc3Oc3cc(F)c(NS(=O)(=O)Cc4ccccc4)c(F)c3F)n2)C1` (single isomer, unassigned) [Compound 319, 1-Phenyl-N-(2,3,6-trifluoro-4-((3-(2-((5-methoxypiperidin-3-yl)amino)pyrimidin-4-yl)pyridin-2-yl)oxy)phenyl)methanesulfonamide], the IC50 stood at 480 pM.
The result for `O=S(=O)(Cc1ccccc1F)Nc1c(F)cc(Oc2ncccc2-c2ccnc(NC3CNCC(C4CC4)C3)n2)c(F)c1F` (single isomer, unassigned) [Compound 324, N-(4-((3-(2-((5-Cyclopropylpiperidin-3-yl)amino)pyrimidin-4-yl)pyridin-2-yl)oxy)-2,3,6-trifluorophenyl)-1-(2-fluorophenyl)methanesulfonamide] reads 400 pM.
The result for `O=S(=O)(Cc1ccccc1F)Nc1c(F)cc(Oc2ncccc2-c2ccnc(NC3CNCC(C4CC4)C3)n2)c(F)c1F` (single isomer, unassigned) [Compound 325, N-(4-((3-(2-((5-Cyclopropylpiperidin-3-yl)amino)pyrimidin-4-yl)pyridin-2-yl)oxy)-2,3,6-trifluorophenyl)-1-(2-fluorophenyl)methanesulfonamide] reads 22000 pM.
The compound `O=S(=O)(Cc1ccccc1F)Nc1c(F)cc(Oc2ncccc2-c2ccnc(NC3CNCC(C4CC4)C3)n2)c(F)c1F` (single isomer, unassigned) [Compound 326, N-(4-((3-(2-((5-Cyclopropylpiperidin-3-yl)amino)pyrimidin-4-yl)pyridin-2-yl)oxy)-2,3,6-trifluorophenyl)-1-(2-fluorophenyl)methanesulfonamide] registered an IC50 of 610 pM.
Regarding `O=S(=O)(Cc1ccccc1F)Nc1c(F)cc(Oc2ncccc2-c2ccnc(NC3CNCC(C4CC4)C3)n2)c(F)c1F` (single isomer, unassigned) [Compound 327, N-(4-((3-(2-((5-Cyclopropylpiperidin-3-yl)amino)pyrimidin-4-yl)pyridin-2-yl)oxy)-2,3,6-trifluorophenyl)-1-(2-fluorophenyl)methanesulfonamide], the IC50 came to 260 pM.
For the compound `COCC1CNCC(Nc2nccc(-c3cccnc3Oc3cc(F)c(NS(=O)(=O)Cc4ccccc4)c(F)c3F)n2)C1` (single isomer, unassigned) [Compound 328, 1-Phenyl-N-(2,3,6-trifluoro-4-((3-(2-((5-(methoxymethyl)piperidin-3-yl)amino)pyrimidin-4-yl)pyridin-2-yl)oxy)phenyl)methanesulfonamide], the IC50 amounted to 11000 pM.
In turn, `COCC1CNCC(Nc2nccc(-c3cccnc3Oc3cc(F)c(NS(=O)(=O)Cc4ccccc4)c(F)c3F)n2)C1` (single isomer, unassigned) [Compound 329, 1-Phenyl-N-(2,3,6-trifluoro-4-((3-(2-((5-(methoxymethyl)piperidin-3-yl)amino)pyrimidin-4-yl)pyridin-2-yl)oxy)phenyl)methanesulfonamide] came in with an IC50 of 12000 pM.
For `COCC1CNCC(Nc2nccc(-c3cccnc3Oc3cc(F)c(NS(=O)(=O)Cc4ccccc4)c(F)c3F)n2)C1` (single isomer, unassigned) [Compound 330, 1-Phenyl-N-(2,3,6-trifluoro-4-((3-(2-((5-(methoxymethyl)piperidin-3-yl)amino)pyrimidin-4-yl)pyridin-2-yl)oxy)phenyl)methanesulfonamide], the IC50 was 87000 pM.
In turn, `COCC1CNCC(Nc2nccc(-c3cccnc3Oc3cc(F)c(NS(=O)(=O)Cc4ccccc4)c(F)c3F)n2)C1` (single isomer, unassigned) [Compound 331, 1-Phenyl-N-(2,3,6-trifluoro-4-((3-(2-((5-(methoxymethyl)piperidin-3-yl)amino)pyrimidin-4-yl)pyridin-2-yl)oxy)phenyl)methanesulfonamide] had an IC50 of 820 pM.
As to `CC(C)(F)C1CNCC(Nc2nccc(-c3cccnc3Oc3cc(F)c(NS(=O)(=O)Cc4ccccc4)c(F)c3F)n2)C1` (single isomer, unassigned) [Compound 334, 1-Phenyl-N-(2,3,6-trifluoro-4-((3-(2-((5-(2-fluoropropan-2-yl)piperidin-3-yl)amino)pyrimidin-4-yl)pyridin-2-yl)oxy)phenyl)methanesulfonamide hydrochloride], the IC50 came out at 9800 pM.
Take `CC(C)(F)C1CNCC(Nc2nccc(-c3cccnc3Oc3cc(F)c(NS(=O)(=O)Cc4ccccc4)c(F)c3F)n2)C1` (single isomer, unassigned) [Compound 335, 1-Phenyl-N-(2,3,6-trifluoro-4-((3-(2-((5-(2-fluoropropan-2-yl)piperidin-3-yl)amino)pyrimidin-4-yl)pyridin-2-yl)oxy)phenyl)methanesulfonamide hydrochloride]: the IC50 was 330000 pM.
In the case of `CC(C)(F)C1CNCC(Nc2nccc(-c3cccnc3Oc3cc(F)c(NS(=O)(=O)Cc4ccccc4)c(F)c3F)n2)C1` (single isomer, unassigned) [Compound 336, 1-Phenyl-N-(2,3,6-trifluoro-4-((3-(2-((5-(2-fluoropropan-2-yl)piperidin-3-yl)amino)pyrimidin-4-yl)pyridin-2-yl)oxy)phenyl)methanesulfonamide hydrochloride], the IC50 is 420 pM.
Take `CC(F)(F)C1CNCC(Nc2nccc(-c3cccnc3Oc3cc(F)c(NS(=O)(=O)Cc4ccccc4)c(F)c3F)n2)C1` (single isomer, unassigned) [Compound 338, N-(4-((3-(2-((5-(1, l-Difluoroethyl)piperidin-3-yl)amino)pyrimidin-4-yl)pyridin-2-yl)oxy)-2,3,6-trifluorophenyl)-1-phenylmethanesulfonamide]: the IC50 was 2600 pM.
`CC(F)(F)C1CNCC(Nc2nccc(-c3cccnc3Oc3cc(F)c(NS(=O)(=O)Cc4ccccc4)c(F)c3F)n2)C1` (single isomer, unassigned) [Compound 339, N-(4-((3-(2-((5-(1, l-Difluoroethyl)piperidin-3-yl)amino)pyrimidin-4-yl)pyridin-2-yl)oxy)-2,3,6-trifluorophenyl)-1-phenylmethanesulfonamide]: the IC50 turned out to be 240 pM.
Compound `CC(F)C1CNCC(Nc2nccc(-c3cccnc3Oc3cc(F)c(NS(=O)(=O)Cc4ccccc4)c(F)c3F)n2)C1` (single isomer, unassigned) [Compound 342, 1-Phenyl-N-(2,3,6-trifluoro-4-((3-(2-((5-(1-fluoroethyl)piperidin-3-yl)amino)pyrimidin-4-yl)pyridin-2-yl)oxy)phenyl)methanesulfonamide hydrochloride] registered an IC50 of 160 pM.
Turning to `CC(F)C1CNCC(Nc2nccc(-c3cccnc3Oc3cc(F)c(NS(=O)(=O)Cc4ccccc4)c(F)c3F)n2)C1` (single isomer, unassigned) [Compound 343, 1-Phenyl-N-(2,3,6-trifluoro-4-((3-(2-((5-(1-fluoroethyl)piperidin-3-yl)amino)pyrimidin-4-yl)pyridin-2-yl)oxy)phenyl)methanesulfonamide hydrochloride], the IC50 came out at 780 pM.
